Results taken from patent US20200181089A1, “4-ANILINO-QUINOLINE COMPOUNDS AS ANTI-CANCER AGENTS” (INSERM (INSTITUT NATIONAL DE LA SANTÉ ET DE LA RECHERCHE …, priority 2016, published 2020).
Read-outs that look alike come from different tables or passages of the source.

Tests used:
Format in all cases: cell-based
A375 cells = assay: A375 cell proliferation assay (trypan blue exclusion); conditions: Homo sapiens, A-375, treated/untreated cell number; for activity at 1 µM: A375, 1 μM; for activity at 10 µM: A375, 10 μM
Description: Cells were counted using a Malassez chamber. The average and standard deviation were calculated from triplicate experiments. Antiproliferative effects were evaluated by trypan blue exclusion assay. Briefly, cells were seeded into 12-well plate and grown in media supplemented with indicated compound at 1 or 10 μM for 48 h or 96 h. Cells were washed with PBS and detached by trypsinization, collected and colored by trypan blue. Dead and living cells were counted and proliferation was calculated as follow: Proliferation (%)=[(treated cell number/untreated cells number)*100].

EZH2 transcription = assay: Ability to decrease EZH2 mRNA level in A375 (dose-response, quantitative PCR); conditions: Homo sapiens, A-375, 96 h; A375 cells, incubated 4 days; read-out: IC50 (concentration necessary to obtain 50% of EZH2 transcription activity)
Description: Typically, 30000-50000 cells were plated in six-well culture plates and incubated 24 h later with increasing concentration of NIK inhibitors or vehicle. Cells were incubated with the inhibitors for 4 days prior to harvesting for RNA extraction and PCR. Total RNA was isolated from cells using the RNAeasy minikit (Qiagen) according to the manufacturer's procedure. Reverse transcription was performed using the AMV reverse transcription system (Promega), and quantitative PCR was performed with Power Sybr green (Applied Biosystems, Life Technologies, Grand Island, N.Y.) following the manufacturer's instructions. The PCR was carried out on a Step One plus Real-Time PCR system (Applied Biosystems). All analyses were done in triplicate, and a melting curve analysis was performed to control for product quality and specificity. Expression levels were calculated using the comparative method of relative quantification, with SB34 as a normalizer. The data were analyzed for statistical significance using Student's t-test. The results are presented as the mean±SEM relative to the control. Primers were obtained from primer bank or primer depot (http://pga.mgh.harvard.edu/primerbank/, https://primerdepot.nci.nih.gov), and their specificity was verified using primer blast (http://www.ncbi.nlm.nih.gov/tools/primer-blast/).
Here IC50 represents the concentration necessary to obtain 50% of EZH2 transcription activity.

normal human melanocyte = assay: Melanocyte viability assay (trypan blue exclusion); conditions: 96 h
Description: (§1) Cell viability effects were evaluated by trypan blue exclusion assay. Briefly, cells were seeded into 12-well plate and grown in media supplemented with indicated compound at 10 μM for 96 h. Cells were washed with PBS and detached by trypsinization, collected and colored by trypan blue. Dead and living cells were counted and cell viability was calculated as follow: Viability (%)=100−[(dead cell number/total cells)*100].

normal human fibroblast = assay: Fibroblast viability assay (trypan blue exclusion); conditions: 96 h
Description: as §1

[1] = 48 h, read-out: Proliferation (%) At 1 μM - 48 H
[2] = 96 h, read-out: Proliferation (%) At 1 μM - 96 H
[3] = 48 h, read-out: Proliferation (%) At 10 μM - 48 H
[4] = 96 h, read-out: Proliferation (%) At 10 μM - 96 H

Structure (SMILES) | activity at 1 µM (A375 cells; [1]) [%] | activity at 1 µM (A375 cells; [2]) [%] | activity at 10 µM (A375 cells; [3]) [%] | activity at 10 µM (A375 cells; [4]) [%] | IC50 (EZH2 transcription) [µM] | Viability (%) at 10 μM Melanocyte (normal human melanocyte) [%] | Viability (%) at 10 μM Fibroblast (normal human fibroblast) [%]
Oc1ccc(Nc2ccc3c(Nc4cc(F)cc(F)c4)ccnc3c2)cc1Cl [Compound 19, 2-chloro-4-((4-((3,5-difluorophenyl)amino)quinolin-7-yl)amino)phenol] | 74.7 | 74.9 | 0.4 | 0 |  |  | 
Oc1ccc(Nc2ccnc3cc(Cl)ccc23)cc1Cl [Compound 8, 4-((4-hydroxy-3-chlorophenyl)amino)-7-chloroquinolinium chloride] | 81.3 | 74 | 82.1 | 67.5 | 15 | 98.0 | 98.6
FC(F)Oc1ccc(Nc2ccnc3cc(Cl)ccc23)cc1 [Compound 34, 7-chloro-N-(4-(difluoromethoxy)phenyl)quinolin-4-amine] | 96 | 98.6 | 77.6 | 37.9 |  | 98.7 | 98.3
FC(F)(F)Oc1ccc(Nc2ccnc3ccc(Cl)cc23)cc1 [Compound 36, 6-chloro-N-(4-(trifluoromethoxy)phenyl)quinolin-4-amine] | 105 | 97.7 | 49.7 | 9.89 |  | 73.4 | 92.1
COc1cccc(Nc2ccc3c(Nc4cc(F)cc(F)c4)ccnc3c2)c1 [Compound 26, N^4-(3,5-difluorophenyl)-N^7-(3-methoxyphenyl)quinolin-4,7-diamine] | 54.9 | 9.9 | 0.4 | 0 |  |  | 
COCCOc1cc(Nc2ccnc3cc(Cl)ccc23)ccc1OC [Compound 35, 7-chloro-N-(4-methoxy-3-(2-methoxyethoxy)phenyl)quinolin-4-amine] | 104 | 85.3 | 84.7 | 79.9 |  | 99.1 | 99.5
COc1ccc(Nc2ccnc3ccc(Cl)cc23)c(OC)c1 [Compound 37, 6-chloro-N-(2,4-dimethoxyphenyl)quinolin-4-amine] | 84 | 87.4 | 80.5 | 53 |  | 98.7 | 94.6
COc1cc(Nc2ccc(OC)c(OC)c2)c2ccc(Cl)cc2n1 [Compound 33, 7-chloro-N-(3,4-dimethoxyphenyl)-2-methoxyquinolin-4-amine] | 106 | 97.2 | 102 | 95.2 |  | 60.1 | 97.7
COc1ccc(Nc2cc(OC)nc3cc(Cl)ccc23)cc1 [Compound 27, 7-chloro-2-methoxy-N-(4-methoxyphenyl)quinolin-4-amine] | 98.7 | 85.6 | 67.8 | 21.8 |  | 76.9 | 93.9
COc1ccc(Nc2cc(OCCN3CCOCC3)nc3cc(Cl)ccc23)cc1OC [Compound 32, 7-chloro-N-(3,4-dimethoxyphenyl)-2-(2-morpholinoethoxy)quinolin-4-amine] | 96 | 84.5 | 100 | 82.2 |  | 98.6 | 99.4
COc1ccc(Nc2cc(N3CCOCC3)nc3cc(Cl)ccc23)cc1 [Compound 30, 7-chloro-N-(4-methoxyphenyl)-2-morpholinoquinolin-4-amine] | 88 | 73.2 | 87.2 | 37 |  | 94.2 | 96.4
Oc1ccc(Nc2ccnc3cc(Cl)ccc23)cc1 [Compound 7, 4-((4-hydroxyphenyl)amino)-7-chloroquinolinium chloride] | 84.6 | 91.1 | 95.2 | 79.4 |  | 99.1 | 97.7
Cc1ccc(Nc2ccnc3cc(Cl)ccc23)cc1 [Compound 2, 4-((4-methylphenyl)amino)-7-chloroquinolinium chloride] |  |  |  |  | 10 |  | 
COc1ccc(Nc2ccnc3cc(Cl)ccc23)c(OC)c1 [Compound 39, 7-chloro-N-(2,4-dimethoxyphenyl)quinolin-4-amine] | 88.3 | 34.3 | 18.1 | 13.6 |  | 99.5 | 100.0
COc1ccc(Nc2cc(N3CCOCC3)nc3cc(Cl)ccc23)cc1OC [Compound 28, 7-chloro-N-(3,4-dimethoxyphenyl)-2-morpholinoquinolin-4-amine] | 98.4 | 87.8 | 92 | 82.8 |  | 99.1 | 95.7
COc1cccc(Nc2ccnc3cc(Cl)ccc23)c1 [Compound 6, 4-((3-methoxyphenyl)amino)-7-chloroquinolinium chloride] |  |  |  |  | 15 |  | 
COc1ccc(Nc2ccnc3cc(N4CCOCC4)ccc23)cc1 [Compound 13, N-(4-methoxyphenyl)-7-morpholinoquinolin-4-amine] |  |  |  |  | 15 |  | 
COc1ccc(Nc2ccnc3cc(Cl)ccc23)cc1OC [Compound 38, 7-chloro-N-(3,4-dimethoxyphenyl)quinolin-4-amine] | 90.8 | 46.9 | 33.5 | 15.7 |  | 99.2 | 93.3
COc1ccc(Nc2cc(N3CCN(C)CC3)nc3cc(Cl)ccc23)cc1 [Compound 31, 7-chloro-N-(4-methoxyphenyl)-2-(4-methylpiperazin-1-yl)quinolin-4-amine] | 106 | 83.3 | 37.6 | 3.39 |  | 33.1 | 29.6
COc1ccc(Nc2cc(N3CCN(C)CC3)nc3cc(Cl)ccc23)cc1OC [Compound 29, 7-chloro-N-(3,4-dimethoxyphenyl)-2-(4-methylpiperazin-1-yl)quinolin-4-amine] | 89.6 | 87.6 | 67.2 | 4.8 |  | 91.2 | 41.6
